{"source": "PubChem BioAssay AID330", "about": "(DTP/NCI, 2004)", "system": "P388 leukemia ip, CD2F1 mice, survival T/C", "assay": "NCI In Vivo Anticancer Drug Screen. Data for tumor model P388 Leukemia (intraperitoneal) in CD2F1 (CDF1) mice", "conditions": "endpoint: median survival time, higher = longer survival", "procedure,_shortened": "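Mice carrying the transplanted tumor received test compound or vehicle. Survival was recorded in each group, and the value is the treated-group measurement divided by that of the vehicle-treated control group.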", "key": {"[1]": {"conditions": "dose: 50.0 mg/kg/injection, schedule: Q01DX005 (ip), vehicle: saline with Tween-80"}, "[2]": {"conditions": "dose: 100.0 mg/kg/injection, schedule: Q01DX005 (ip), vehicle: saline with Tween-80"}}, "note": "Several values for one entry are separate records, joined by “and”; a condition that tells them apart may be missing. Equal entries are not always repeated. Inconclusive results and toxic doses are left out. Peptide text beside a SMILES is read from it.", "data": [{"smiles": "COc1ccc(CS(=O)(=O)c2cncnc2N)cc1OC", "values": [{"measurement": "T/C", "setting": "dose: 100.0 mg/kg/injection, schedule: Q01DX001 (ip), vehicle: saline", "result": "106 % of control"}, {"measurement": "T/C", "setting": "dose: 200.0 mg/kg/injection, schedule: Q01DX001 (ip), vehicle: saline", "result": "96 % of control"}, {"measurement": "T/C", "setting": "dose: 400.0 mg/kg/injection, schedule: Q01DX001 (ip), vehicle: saline", "result": "101 % of control"}]}, {"smiles": "C=CCN(C=O)CC(OCC)OCC", "values": [{"measurement": "T/C", "setting": "dose: 25.0 mg/kg/injection, schedule: Q01DX005 (ip), vehicle: saline with Tween-80", "result": "100 % of control"}, {"measurement": "T/C", "setting": "[1]", "result": "97 % of control"}, {"measurement": "T/C", "setting": "[2]", "result": "99 % of control"}]}, {"smiles": "COC(=O)Nc1cn2c(n1)sc1ccccc12", "values": [{"measurement": "T/C", "setting": "dose: 100.0 mg/kg/injection, schedule: Q01DX001 (ip), vehicle: saline with Tween-80", "result": "100 % of control"}, {"measurement": "T/C", "setting": "dose: 200.0 mg/kg/injection, schedule: Q01DX001 (ip), vehicle: saline with Tween-80", "result": "96 % of control"}, {"measurement": "T/C", "setting": "dose: 400.0 mg/kg/injection, schedule: Q01DX001 (ip), vehicle: saline with Tween-80", "result": "91 % of control"}]}, {"smiles": "Cn1nnnc1NNc1nnnn1C", "values": [{"measurement": "T/C", "setting": "[1]", "result": "99 % of control"}, {"measurement": "T/C", "setting": "[2]", "result": "99 % of control"}, {"measurement": "T/C", "setting": "dose: 200.0 mg/kg/injection, schedule: Q01DX005 (ip), vehicle: saline with Tween-80", "result": "99 % of control"}]}, {"smiles": "CC(CCC1(O)OC2CC3C4CC=C5CC(OC6OC(CO)C(OC7OC(C)C(O)C(O)C7O)C(O)C6O)CCC5(C)C4CCC3(C)C2C1(C)C)COC1OC(C)C(O)C(O)C1O", "note": "(configuration not stated)", "values": [{"measurement": "T/C", "setting": "dose: 2.5 mg/kg/injection, schedule: Q01DX005 (ip), vehicle: Klucel (hydroxypropylcellulose) (HPC)", "result": "100 % of control"}, {"measurement": "T/C", "setting": "dose: 5.0 mg/kg/injection, schedule: Q01DX005 (ip), vehicle: Klucel (hydroxypropylcellulose) (HPC)", "result": "88 % of control"}]}, {"smiles": "COc1ccc2c(c1)NC(=O)Cn1nnnc1-2", "values": [{"measurement": "T/C", "setting": "dose: 25.0 mg/kg/injection, schedule: Q04DX002 (ip), vehicle: saline with Tween-80", "result": "96 % of control"}, {"measurement": "T/C", "setting": "dose: 50.0 mg/kg/injection, schedule: Q04DX002 (ip), vehicle: saline with Tween-80", "result": "91 % of control"}, {"measurement": "T/C", "setting": "dose: 100.0 mg/kg/injection, schedule: Q04DX002 (ip), vehicle: saline with Tween-80", "result": "96 % of control"}, {"measurement": "T/C", "setting": "dose: 400.0 mg/kg/injection, schedule: Q04DX002 (ip), vehicle: saline with Tween-80", "result": "93 % of control"}]}, {"smiles": "COc1cccc2c1C(=O)c1c(O)c3c(c(O)c1C2=O)C[C@@](O)(/C(C)=N\\NC(=O)CO)C[C@@H]3OC1CC(N)C(O)C(C)O1", "note": "(some centres not stated)", "values": [{"measurement": "T/C", "setting": "dose: 0.29 mg/kg/injection, schedule: Q04DX003 (ip), vehicle: saline", "result": "118 % of control"}, {"measurement": "T/C", "setting": "dose: 0.78 mg/kg/injection, schedule: Q01DX009 (ip), vehicle: water", "result": "153 % of control"}, {"measurement": "T/C", "setting": "dose: 1.0 mg/kg/injection, schedule: Q01DX009 (ip), vehicle: saline", "result": "152 % of control"}, {"measurement": "T/C", "setting": "dose: 1.0 mg/kg/injection, schedule: Q04DX003 (ip), vehicle: saline", "result": "150 % of control"}, {"measurement": "T/C", "setting": "dose: 1.32 mg/kg/injection, schedule: Q04DX003 (ip), vehicle: saline", "result": "150 % of control"}, {"measurement": "T/C", "setting": "dose: 1.5 mg/kg/injection, schedule: Q01DX009 (ip), vehicle: saline", "result": "154 % of control"}, {"measurement": "T/C", "setting": "dose: 1.56 mg/kg/injection, schedule: Q01DX009 (ip), vehicle: water", "result": "160 % of control"}, {"measurement": "T/C", "setting": "dose: 2.0 mg/kg/injection, schedule: Q01DX009 (ip), vehicle: water", "result": "166 % of control"}, {"measurement": "T/C", "setting": "dose: 2.0 mg/kg/injection, schedule: Q04DX003 (ip), vehicle: saline", "result": "154 % of control"}, {"measurement": "T/C", "setting": "dose: 2.25 mg/kg/injection, schedule: Q01DX009 (ip), vehicle: saline", "result": "189 % of control"}, {"measurement": "T/C", "setting": "dose: 2.5 mg/kg/injection, schedule: Q04DX003 (ip), vehicle: water", "result": "119 % of control"}, {"measurement": "T/C", "setting": "dose: 3.0 mg/kg/injection, schedule: Q04DX003 (ip), vehicle: saline", "result": "177 % of control"}, {"measurement": "T/C", "setting": "dose: 3.13 mg/kg/injection, schedule: Q01DX009 (ip), vehicle: water", "result": "180 % of control"}, {"measurement": "T/C", "setting": "dose: 4.0 mg/kg/injection, schedule: Q01DX009 (ip), vehicle: water", "result": "192 % of control"}, {"measurement": "T/C", "setting": "dose: 5.0 mg/kg/injection, schedule: Q04DX003 (ip), vehicle: water", "result": "119 % of control"}, {"measurement": "T/C", "setting": "dose: 6.25 mg/kg/injection, schedule: Q01DX009 (ip), vehicle: water", "result": "108 % of control"}, {"measurement": "T/C", "setting": "dose: 40.0 mg/kg/injection, schedule: Q04DX003 (ip), vehicle: water", "result": "90 % of control"}, {"measurement": "T/C", "setting": "dose: 80.0 mg/kg/injection, schedule: Q04DX003 (ip), vehicle: water", "result": "90 % of control and 96 % of control"}]}, {"smiles": "O=C(Cc1ccccc1)c1c[nH]c2c(O)ccc(O)c12", "values": [{"measurement": "T/C", "setting": "dose: 50.0 mg/kg/injection, schedule: Q04DX002 (ip), vehicle: Klucel (hydroxypropylcellulose) (HPC)", "result": "104 % of control"}, {"measurement": "T/C", "setting": "dose: 100.0 mg/kg/injection, schedule: Q04DX002 (ip), vehicle: Klucel (hydroxypropylcellulose) (HPC)", "result": "108 % of control"}, {"measurement": "T/C", "setting": "dose: 200.0 mg/kg/injection, schedule: Q04DX002 (ip), vehicle: Klucel (hydroxypropylcellulose) (HPC)", "result": "111 % of control"}]}, {"smiles": "O=C1NC(=O)C23CC=CCC12CCCC3", "note": "(configuration not stated)", "values": [{"measurement": "T/C", "setting": "dose: 50.0 mg/kg/injection, schedule: Q01DX009 (ip), vehicle: Klucel (hydroxypropylcellulose) (HPC)", "result": "101 % of control"}, {"measurement": "T/C", "setting": "dose: 100.0 mg/kg/injection, schedule: Q01DX009 (ip), vehicle: Klucel (hydroxypropylcellulose) (HPC)", "result": "100 % of control"}, {"measurement": "T/C", "setting": "dose: 200.0 mg/kg/injection, schedule: Q01DX009 (ip), vehicle: Klucel (hydroxypropylcellulose) (HPC)", "result": "100 % of control"}]}, {"smiles": "CC1C=CC(C)N(c2nnnn2C)N1c1nnnn1C", "note": "(configuration not stated)", "values": [{"measurement": "T/C", "setting": "dose: 100.0 mg/kg/injection, schedule: Q04DX003 (ip), vehicle: saline with Tween-80", "result": "116 % of control"}, {"measurement": "T/C", "setting": "dose: 200.0 mg/kg/injection, schedule: Q04DX003 (ip), vehicle: saline with Tween-80", "result": "106 % of control"}, {"measurement": "T/C", "setting": "dose: 400.0 mg/kg/injection, schedule: Q04DX003 (ip), vehicle: saline with Tween-80", "result": "100 % of control"}]}, {"smiles": "CCC[As](CCC)SC1OC(C2COC(C)(C)O2)C2OC(C)(C)OC12", "note": "(configuration not stated)", "values": [{"measurement": "T/C", "setting": "dose: 12.5 mg/kg/injection, schedule: Q01DX009 (ip), vehicle: distilled water + Tween-80", "result": "100 % of control"}, {"measurement": "T/C", "setting": "dose: 25.0 mg/kg/injection, schedule: Q01DX009 (ip), vehicle: distilled water + Tween-80", "result": "110 % of control"}]}, {"smiles": "CC(C)CC(N)C(=O)NC(Cc1cnc[nH]1)C(=O)O", "note": "(stereo not drawn) (H-Leu-His-OH; configuration not given here)", "values": [{"measurement": "T/C", "setting": "dose: 60.0 mg/kg/injection, schedule: Q01DX005 (ip), vehicle: saline", "result": "97 % of control"}, {"measurement": "T/C", "setting": "dose: 120.0 mg/kg/injection, schedule: Q01DX005 (ip), vehicle: saline", "result": "106 % of control"}, {"measurement": "T/C", "setting": "dose: 240.0 mg/kg/injection, schedule: Q01DX005 (ip), vehicle: saline", "result": "104 % of control"}]}, {"smiles": "CC1=CC(=O)[C@@H](O)[C@]2(C)[C@H]3[C@@H](O)[C@H](O)[C@@](C)(O)[C@@H]4[C@@H](O)C(=O)O[C@H](C[C@@H]12)[C@]34C", "values": [{"measurement": "T/C", "setting": "dose: 1.0 mg/kg/injection, schedule: Q01DX009 (ip), vehicle: saline + alcohol", "result": "99 % of control"}, {"measurement": "T/C", "setting": "dose: 2.0 mg/kg/injection, schedule: Q01DX009 (ip), vehicle: saline + alcohol", "result": "101 % of control"}, {"measurement": "T/C", "setting": "dose: 4.0 mg/kg/injection, schedule: Q01DX009 (ip), vehicle: saline + alcohol", "result": "99 % of control"}, {"measurement": "T/C", "setting": "dose: 8.0 mg/kg/injection, schedule: Q01DX009 (ip), vehicle: saline + alcohol", "result": "99 % of control"}]}, {"smiles": "O=C(O)/C=N/NS(=O)(=O)c1cccc([N+](=O)[O-])c1", "values": [{"measurement": "T/C", "setting": "dose: 25.0 mg/kg/injection, schedule: Q01DX009 (ip), vehicle: other", "result": "118 % of control and 119 % of control and 122 % of control"}, {"measurement": "T/C", "setting": "dose: 50.0 mg/kg/injection, schedule: Q01DX009 (ip), vehicle: other", "result": "117 % of control"}, {"measurement": "T/C", "setting": "dose: 200.0 mg/kg/injection, schedule: Q01DX009 (ip), vehicle: other", "result": "160 % of control"}]}]}
